Experimental data reported in ChEMBL document CHEMBL4346710, “Discovery of 7H-pyrrolo[2,3-d]pyrimidine derivatives as selective covalent irreversible inhibitors of interleukin-2-inducible T-cell kinase (Itk)” (Eur J Med Chem, 2019).
Active and inactive are the calls of the source. The calls are words filed in the database; no cut-off is given here.

Columns and labels:
[1] = target: T1, Tyrosine-protein kinase ITK/TSK (Homo sapiens) (UniProt Q08881); assay: Inhibition of ITK in human Jurkat cells assessed as reduction in anti-CD3/CD28-stimulated PLCgamma1 phosphorylation at 0.1 to 10000 nM preincubated for 2 hrs followed by anti-CD3/CD28 beads addition and measured after 30 min by Western blot analysis; type: cell-based
T1 sequence (whole entry): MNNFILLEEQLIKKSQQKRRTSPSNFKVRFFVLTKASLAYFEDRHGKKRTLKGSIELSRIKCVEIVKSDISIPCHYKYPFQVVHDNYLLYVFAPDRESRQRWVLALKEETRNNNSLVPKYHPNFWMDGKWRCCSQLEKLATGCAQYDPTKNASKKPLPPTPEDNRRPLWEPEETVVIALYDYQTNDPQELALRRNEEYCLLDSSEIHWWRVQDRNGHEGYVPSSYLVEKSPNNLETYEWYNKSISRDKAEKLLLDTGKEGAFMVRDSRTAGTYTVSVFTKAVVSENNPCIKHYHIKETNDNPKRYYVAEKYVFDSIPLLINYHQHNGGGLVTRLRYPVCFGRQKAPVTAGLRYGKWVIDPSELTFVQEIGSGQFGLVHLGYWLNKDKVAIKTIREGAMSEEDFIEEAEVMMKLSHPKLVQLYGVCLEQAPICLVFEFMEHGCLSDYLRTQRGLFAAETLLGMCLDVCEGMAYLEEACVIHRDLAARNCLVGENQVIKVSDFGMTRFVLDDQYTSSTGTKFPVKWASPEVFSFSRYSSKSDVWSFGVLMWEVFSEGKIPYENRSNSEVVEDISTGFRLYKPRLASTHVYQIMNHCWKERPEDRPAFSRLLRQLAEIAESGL

[2] = target: Glycogen synthase kinase-3 alpha (Homo sapiens) (UniProt P49840); assay: Inhibition of recombinant full length human His-tagged GSK3alpha expressed in baculovirus expression system assessed as enzyme residual activity at 0.4 uM using fluorophore-labeled serine/threonine-9 peptide as substrate incubated for 60 mins by Z'-LYTE assay relative to control
[3] = target: Insulin-like growth factor 1 receptor (Homo sapiens) (UniProt P08069); assay: Inhibition of recombinant human His-tagged IGF1R cytoplasmic domain ([…]) expressed in baculovirus expression system assessed as enzyme residual activity at 0.4 uM using fluorophore-labeled tyrosine-1 peptide as substrate incubated for 60 mins by Z'-LYTE assay relative to control
Chain of Insulin-like growth factor 1 receptor (Homo sapiens) (P08069 31-736 limits assumed): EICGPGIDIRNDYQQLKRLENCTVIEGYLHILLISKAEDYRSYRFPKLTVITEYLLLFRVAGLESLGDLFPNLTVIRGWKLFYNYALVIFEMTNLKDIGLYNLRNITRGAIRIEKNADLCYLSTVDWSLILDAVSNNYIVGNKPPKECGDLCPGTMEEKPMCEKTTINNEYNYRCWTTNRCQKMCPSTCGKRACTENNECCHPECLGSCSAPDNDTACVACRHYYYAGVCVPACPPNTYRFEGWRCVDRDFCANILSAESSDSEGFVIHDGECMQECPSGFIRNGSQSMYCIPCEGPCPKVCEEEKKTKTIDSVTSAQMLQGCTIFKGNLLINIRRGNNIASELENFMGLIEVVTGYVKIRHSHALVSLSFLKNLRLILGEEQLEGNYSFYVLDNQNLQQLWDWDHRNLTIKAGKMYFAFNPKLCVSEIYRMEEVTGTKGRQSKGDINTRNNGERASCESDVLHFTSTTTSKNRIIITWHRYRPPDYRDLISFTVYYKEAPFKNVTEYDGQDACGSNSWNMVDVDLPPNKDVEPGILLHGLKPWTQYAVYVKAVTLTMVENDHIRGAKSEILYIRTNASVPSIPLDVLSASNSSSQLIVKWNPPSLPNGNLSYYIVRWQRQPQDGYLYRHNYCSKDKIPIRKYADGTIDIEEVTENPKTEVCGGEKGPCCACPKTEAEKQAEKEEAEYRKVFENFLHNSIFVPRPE
Chain of Insulin-like growth factor 1 receptor (Homo sapiens) (P08069 741-1367 limits assumed): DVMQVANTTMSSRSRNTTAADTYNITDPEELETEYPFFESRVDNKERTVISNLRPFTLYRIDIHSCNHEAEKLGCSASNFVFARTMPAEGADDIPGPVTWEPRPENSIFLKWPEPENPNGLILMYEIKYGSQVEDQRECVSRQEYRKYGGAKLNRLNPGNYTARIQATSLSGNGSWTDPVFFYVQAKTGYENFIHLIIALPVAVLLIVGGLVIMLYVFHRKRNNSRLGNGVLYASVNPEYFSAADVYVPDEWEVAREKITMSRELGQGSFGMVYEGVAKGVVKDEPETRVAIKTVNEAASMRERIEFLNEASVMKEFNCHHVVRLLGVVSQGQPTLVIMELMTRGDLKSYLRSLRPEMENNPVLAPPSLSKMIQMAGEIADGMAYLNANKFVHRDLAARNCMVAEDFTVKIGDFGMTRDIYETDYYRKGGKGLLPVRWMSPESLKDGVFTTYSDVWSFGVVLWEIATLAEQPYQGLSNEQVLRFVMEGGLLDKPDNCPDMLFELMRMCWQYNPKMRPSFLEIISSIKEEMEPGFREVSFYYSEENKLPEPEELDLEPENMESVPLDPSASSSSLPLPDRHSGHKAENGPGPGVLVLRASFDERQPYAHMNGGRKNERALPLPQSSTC

[4] = target: RAC-alpha serine/threonine-protein kinase (Homo sapiens) (UniProt P31749); assay: Inhibition of recombinant full length human His-tagged AKT1 expressed in baculovirus expression system assessed as enzyme residual activity at 0.4 uM using fluorophore-labeled serine/threonine-06 peptide as substrate incubated for 60 mins by Z'-LYTE assay relative to control
[5] = target: Receptor-type tyrosine-protein kinase FLT3 (Homo sapiens) (UniProt P36888); assay: Inhibition of recombinant human His-tagged FLT3 cytoplasmic domain (564 to 958 residues) expressed in baculovirus expression system assessed as enzyme residual activity at 0.4 uM using fluorophore-labeled tyrosine-2 peptide as substrate incubated for 60 mins by Z'-LYTE assay relative to control
Chain of Receptor-type tyrosine-protein kinase FLT3 (Homo sapiens) (P36888 whole entry, the tested form may be a part): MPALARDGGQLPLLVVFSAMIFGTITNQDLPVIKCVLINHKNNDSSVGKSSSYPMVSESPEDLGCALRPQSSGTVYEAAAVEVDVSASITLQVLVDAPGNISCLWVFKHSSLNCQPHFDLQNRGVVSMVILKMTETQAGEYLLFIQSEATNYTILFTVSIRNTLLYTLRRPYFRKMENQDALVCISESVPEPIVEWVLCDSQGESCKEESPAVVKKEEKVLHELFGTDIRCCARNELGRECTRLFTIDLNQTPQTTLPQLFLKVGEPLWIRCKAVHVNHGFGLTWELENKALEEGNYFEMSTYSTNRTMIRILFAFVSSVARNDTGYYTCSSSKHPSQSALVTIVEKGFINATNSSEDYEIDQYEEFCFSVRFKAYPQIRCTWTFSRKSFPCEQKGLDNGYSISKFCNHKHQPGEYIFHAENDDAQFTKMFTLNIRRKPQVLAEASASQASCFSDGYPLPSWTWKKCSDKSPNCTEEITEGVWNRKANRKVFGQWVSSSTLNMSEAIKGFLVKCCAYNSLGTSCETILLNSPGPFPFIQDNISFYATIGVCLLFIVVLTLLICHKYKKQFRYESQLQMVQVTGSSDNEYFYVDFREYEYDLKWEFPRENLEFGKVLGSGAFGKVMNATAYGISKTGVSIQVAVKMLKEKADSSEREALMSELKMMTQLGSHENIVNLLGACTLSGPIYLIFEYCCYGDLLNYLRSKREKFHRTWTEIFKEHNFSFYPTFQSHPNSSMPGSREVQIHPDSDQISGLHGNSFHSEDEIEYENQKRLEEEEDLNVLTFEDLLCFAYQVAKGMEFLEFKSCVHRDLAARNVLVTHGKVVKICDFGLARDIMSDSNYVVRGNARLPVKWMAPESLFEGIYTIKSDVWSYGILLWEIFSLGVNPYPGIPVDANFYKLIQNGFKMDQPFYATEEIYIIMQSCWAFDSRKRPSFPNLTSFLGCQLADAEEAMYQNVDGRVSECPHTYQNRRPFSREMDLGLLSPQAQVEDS

[6] = target: Serine/threonine-protein kinase Chk2 (Homo sapiens) (UniProt O96017); assay: Inhibition of recombinant full length human His-tagged CHEK2 expressed in baculovirus expression system assessed as enzyme residual activity at 0.4 uM using fluorophore-labeled serine/threonine-07 peptide as substrate incubated for 60 mins by Z'-LYTE assay relative to control
CCRF-CEM = assay: Induction of apoptosis in human CCRF-CEM cells assessed as upregulation of cleaved PARP at 1 to 5 uM incubated for 24 hrs by Western blot analysis; type: functional, cell-based
TAK1/TAB1 = TAK1/TAB1 (Homo sapiens, UniProt O43318); assay: Inhibition of tracer 222 binding to recombinant full-length human His-tagged MAP3K7/MAP3K7IP1 (437 to 504 residues) expressed in baculovirus expression system by Lanthascreen assay
Chain of TAK1/TAB1 (Q15750 whole entry, the tested form may be a part): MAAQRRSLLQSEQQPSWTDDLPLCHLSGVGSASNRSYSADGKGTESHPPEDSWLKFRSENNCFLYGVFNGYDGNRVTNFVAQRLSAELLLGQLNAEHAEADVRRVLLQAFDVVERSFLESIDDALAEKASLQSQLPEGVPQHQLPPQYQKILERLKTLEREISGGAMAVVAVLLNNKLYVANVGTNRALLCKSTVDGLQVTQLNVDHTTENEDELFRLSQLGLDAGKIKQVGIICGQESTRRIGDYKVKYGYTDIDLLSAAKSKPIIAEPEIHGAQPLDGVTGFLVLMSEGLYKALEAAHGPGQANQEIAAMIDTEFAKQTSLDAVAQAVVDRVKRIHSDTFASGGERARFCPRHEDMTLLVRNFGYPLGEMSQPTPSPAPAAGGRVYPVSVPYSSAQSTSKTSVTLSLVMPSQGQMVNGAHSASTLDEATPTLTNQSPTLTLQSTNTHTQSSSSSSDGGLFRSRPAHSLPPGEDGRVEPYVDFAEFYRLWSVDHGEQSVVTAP
Chain of TAK1/TAB1 (O43318 whole entry, the tested form may be a part): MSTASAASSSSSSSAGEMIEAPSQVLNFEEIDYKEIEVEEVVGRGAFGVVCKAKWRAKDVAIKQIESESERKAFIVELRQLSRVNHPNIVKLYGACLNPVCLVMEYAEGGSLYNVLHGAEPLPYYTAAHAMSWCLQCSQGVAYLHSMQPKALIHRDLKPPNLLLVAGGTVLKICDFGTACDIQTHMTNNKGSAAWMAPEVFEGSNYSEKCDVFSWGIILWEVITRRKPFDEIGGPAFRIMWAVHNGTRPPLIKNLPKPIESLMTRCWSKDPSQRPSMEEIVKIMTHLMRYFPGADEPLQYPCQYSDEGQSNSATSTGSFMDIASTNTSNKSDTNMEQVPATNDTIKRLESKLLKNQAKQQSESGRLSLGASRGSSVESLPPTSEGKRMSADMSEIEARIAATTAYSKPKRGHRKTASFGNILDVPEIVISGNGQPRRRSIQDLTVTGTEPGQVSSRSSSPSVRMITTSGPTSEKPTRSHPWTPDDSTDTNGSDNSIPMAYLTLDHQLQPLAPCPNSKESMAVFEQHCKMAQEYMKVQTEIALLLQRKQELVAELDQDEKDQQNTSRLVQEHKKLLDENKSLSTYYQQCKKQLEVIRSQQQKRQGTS

[7] = target: cAMP-dependent protein kinase catalytic subunit alpha (Homo sapiens) (UniProt P17612); assay: Inhibition of recombinant human His-tagged PRKACA catalytic domain (1 to 351 residues) expressed in Escherichia coli assessed as enzyme residual activity at 0.4 uM using fluorophore-labeled serine/threonine-1 peptide as substrate incubated for 60 mins by Z'-LYTE assay relative to control
[8] = target: T1, Tyrosine-protein kinase ITK/TSK (Homo sapiens); assay: Inhibition of recombinant human N-terminal His6-tagged ITK (352 to 617 residues) expressed in baculovirus infected Sf21 insect cells assessed as ratio of Kinact to Ki using STK substrate by HTRF assay
[9] = target: T2, Epidermal growth factor receptor (Homo sapiens, UniProt P00533); assay: Inhibition of recombinant human N-terminal GST-tagged EGFR kinase domain (696 to end residues) expressed in baculovirus infected Sf21 insect cells using STK as substrate by HTRF assay
T2 sequence (P00533 whole entry, the tested form may be a part): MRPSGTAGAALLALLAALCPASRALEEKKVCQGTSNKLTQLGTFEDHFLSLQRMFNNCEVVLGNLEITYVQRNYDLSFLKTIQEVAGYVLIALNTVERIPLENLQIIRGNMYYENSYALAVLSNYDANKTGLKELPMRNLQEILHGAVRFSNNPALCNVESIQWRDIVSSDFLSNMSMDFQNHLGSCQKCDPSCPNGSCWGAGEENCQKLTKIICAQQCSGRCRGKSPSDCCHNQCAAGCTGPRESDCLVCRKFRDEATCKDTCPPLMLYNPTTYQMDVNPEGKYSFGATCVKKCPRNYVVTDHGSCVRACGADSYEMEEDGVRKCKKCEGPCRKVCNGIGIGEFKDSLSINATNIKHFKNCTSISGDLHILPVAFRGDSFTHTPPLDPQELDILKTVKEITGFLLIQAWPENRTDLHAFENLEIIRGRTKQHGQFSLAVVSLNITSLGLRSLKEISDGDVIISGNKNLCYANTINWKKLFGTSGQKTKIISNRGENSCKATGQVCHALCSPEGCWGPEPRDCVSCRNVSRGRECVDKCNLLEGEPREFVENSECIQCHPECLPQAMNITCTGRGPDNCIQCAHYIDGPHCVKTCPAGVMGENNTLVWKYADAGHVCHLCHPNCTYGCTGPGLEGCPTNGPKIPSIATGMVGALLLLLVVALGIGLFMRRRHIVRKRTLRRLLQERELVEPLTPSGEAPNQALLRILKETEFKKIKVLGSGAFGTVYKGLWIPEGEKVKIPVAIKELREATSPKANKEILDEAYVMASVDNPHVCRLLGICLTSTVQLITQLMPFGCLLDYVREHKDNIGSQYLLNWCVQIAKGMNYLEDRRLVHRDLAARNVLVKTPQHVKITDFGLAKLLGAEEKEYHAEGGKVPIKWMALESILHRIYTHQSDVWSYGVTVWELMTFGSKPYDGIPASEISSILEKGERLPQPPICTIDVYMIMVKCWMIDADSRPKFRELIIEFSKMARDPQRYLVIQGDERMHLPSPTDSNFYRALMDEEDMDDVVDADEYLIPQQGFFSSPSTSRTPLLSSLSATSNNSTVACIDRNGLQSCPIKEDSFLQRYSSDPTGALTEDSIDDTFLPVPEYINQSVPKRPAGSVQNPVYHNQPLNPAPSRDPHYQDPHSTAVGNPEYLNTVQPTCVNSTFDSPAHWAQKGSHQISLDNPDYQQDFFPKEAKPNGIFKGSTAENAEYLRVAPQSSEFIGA

Jurkat [10] = assay: Induction of apoptosis in human Jurkat cells assessed as downregulation of PARP at 1 to 20 uM incubated for 24 hrs by Western blot analysis; type: functional, cell-based
[11] = target: T2, Epidermal growth factor receptor; assay: Inhibition of human recombinant GST-tagged EGFR cytoplasmic domain (668 to 1210 residues) expressed in baculovirus expression system assessed as enzyme residual activity at 0.4 uM using fluorophore-labeled tyrosine-4 peptide as substrate by Z'-Lyte assay relative to control
[12] = Inhibition of tracer 236 binding to recombinant full length human C-terminal His-tagged AMPK alpha2/beta2/gamma1 expressed in baculovirus infected Sf9 cells assessed as enzyme residual activity at 0.4 uM incubated for 60 mins by Lanthascreen assay relative to control
[13] = target: Calcium/calmodulin-dependent protein kinase type IV (Homo sapiens) (UniProt Q16566); assay: Inhibition of recombinant human full length GST-tagged CAMK4 expressed in Escherichia coli expression system assessed as enzyme residual activity at 0.4 uM using fluorophore-labeled serine/threonine-13 peptide as substrate incubated for 60 mins by Z'-LYTE assay relative to control
[14] = target: Tyrosine-protein kinase Fyn (Homo sapiens) (UniProt P06241); assay: Inhibition of recombinant full length C-terminal His-tagged human FYN cytoplasmic domain expressed in baculovirus expression system assessed as enzyme residual activity at 0.4 uM using fluorophore-labeled tyrosine-2 peptide as substrate by Z'-Lyte assay relative to control
Jurkat [15] = assay: Induction of apoptosis in human Jurkat cells assessed as downregulation of caspase3 at 1 to 20 uM incubated for 24 hrs by Western blot analysis; type: functional, cell-based
[16] = target: Mitogen-activated protein kinase 3 (Homo sapiens) (UniProt P27361); assay: Inhibition of recombinant full length human GST-tagged ERK1 expressed in Escherichia coli assessed as enzyme residual activity at 0.4 uM using fluorophore-labeled serine/threonine-3 peptide as substrate incubated for 60 mins by Z'-LYTE assay relative to control
Chain of Mitogen-activated protein kinase 3 (Homo sapiens) (P27361 whole entry, the tested form may be a part): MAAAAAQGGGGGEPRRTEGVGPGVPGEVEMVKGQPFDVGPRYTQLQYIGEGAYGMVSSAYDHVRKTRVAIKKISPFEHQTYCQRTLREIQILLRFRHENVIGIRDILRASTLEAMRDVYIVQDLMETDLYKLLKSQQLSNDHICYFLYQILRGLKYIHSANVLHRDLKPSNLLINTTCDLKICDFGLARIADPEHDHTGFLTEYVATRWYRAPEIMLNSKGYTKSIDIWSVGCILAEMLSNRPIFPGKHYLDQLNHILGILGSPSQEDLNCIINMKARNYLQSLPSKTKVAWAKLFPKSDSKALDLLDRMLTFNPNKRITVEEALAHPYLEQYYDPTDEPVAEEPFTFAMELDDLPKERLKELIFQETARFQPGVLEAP

Homo sapiens = organism: Homo sapiens; assay: Selectivity ratio of IC50 for recombinant human N-terminal His6-tagged JAK3 (781 to end residues) expressed in baculovirus infected Sf21 cells to IC50 for recombinant human N-terminal His6-tagged ITK (352 to 617 residues) expressed in baculovirus infected Sf21 insect cells

inhibition [1]: Active
Activity [2]: 29.3%
Activity [3]: 84%
Activity [4]: 96%
Activity [5]: 2.3%
Activity [6]: 78.7%
IC50 (TAK1/TAB1): 54 nM
Activity [7]: 86%
Ratio [8]: 101 ×10³ /M.s
IC50 [9]: 1260 nM
Activity [11]: 62%
Activity [13]: 107%
Activity [14]: 21%
Activity [16]: 98.7%
Structure (SMILES): C=CC(=O)N1CCC(Oc2nc(Nc3ccc(N4CCOCC4)cc3)nc3[nH]cc(-c4cncc(NC)n4)c23)CC1
Activity (CCRF-CEM): Active
Activity (Jurkat [10]): Active
Activity [12]: 64.3%
Activity (Jurkat [15]): Active
Ratio IC50 (Homo sapiens): 33
